Where two headings read alike, the source gives them in different places.
How the values were obtained:
[1] = molecular target: T1, cannabinoid receptor (CP 55940 binding sites) (Rattus norvegicus, UniProt P20272); experiment: CP55940 binding assay (CP)
T1 construct: from tissue; host or cells: rat brain membranes (inferred from the cited Devane et al. 1988)

mouse vas deferens = mouse vas deferens adrenergic transmission test (MVD); type: cell-based; details: for IC50: inhibition of contractions in the MVD preparation in vitro, active at IC50 of 5.0 μM or less; for inhibition at 10 µM: read-out: MVD percent inhibition at a given dose level
Description: Med. Assoc. 217, 1392 (1971)]. […] Opth. 7, 921-923 (1975); Green and Pederson, Effect of delta-9 Tetrahydrocannabinol on Aqueous Dynamics and Ciliary Body Permeability in the Rabbit Eye., Exptl. Eye Research 15, 499-507 (1973); Colasanti, Craig and Allara, Intraocular Pressure, Ocular Toxicity and Neurotoxicity after Administration of Cannabinol or Cannabigerol, Exptl. Eye Research 39, 252-259 (1984)]. Similarly, synthetic cannabinoids also reduce intraocular pressure [Green, Symunds, Oliver and Elijah, Intraocular Pressure Following Systemic Administration of Cannabinoids., Curr. […] Cannabinoid receptor binding sites can be defined as those to which radio-labelled 4-(1,1-dimethyl-heptyl)-2,3'-dihydroxy-6'alpha-(3-hydroxypropyl)-1',2',3',4',-5',6'-hexahydrobiphenyl (CP 55940) binds in a specific and saturable manner and the binding sites are heterogeneously distributed in the brain [Devane, Dysarz, Johnson, Melvin and Howlett, Determination and Characterization of a Cannabinoid Receptor in Rat Brain, Molecular Pharm 34, 605-613 (1988)]. Natural and synthetic cannabinoids and representative examples of the compounds of the present invention bind to CP 55940 binding sites. […] It is believed that agonist activity at the cannabinoid receptor mediates the anti-glaucoma actions of cannabinoids, and that agonist activity at this receptor correlates with ocular pressure lowering actions in man.
The compounds are identified by the Example or the Preparation number above where their preparations are described.

[2] = smoking (marijuana, man); topical application or systemic injection (delta-9 tetrahydrocannabinol; cited studies in man and rabbit); cited from earlier work

T1 sequence (P20272 whole entry): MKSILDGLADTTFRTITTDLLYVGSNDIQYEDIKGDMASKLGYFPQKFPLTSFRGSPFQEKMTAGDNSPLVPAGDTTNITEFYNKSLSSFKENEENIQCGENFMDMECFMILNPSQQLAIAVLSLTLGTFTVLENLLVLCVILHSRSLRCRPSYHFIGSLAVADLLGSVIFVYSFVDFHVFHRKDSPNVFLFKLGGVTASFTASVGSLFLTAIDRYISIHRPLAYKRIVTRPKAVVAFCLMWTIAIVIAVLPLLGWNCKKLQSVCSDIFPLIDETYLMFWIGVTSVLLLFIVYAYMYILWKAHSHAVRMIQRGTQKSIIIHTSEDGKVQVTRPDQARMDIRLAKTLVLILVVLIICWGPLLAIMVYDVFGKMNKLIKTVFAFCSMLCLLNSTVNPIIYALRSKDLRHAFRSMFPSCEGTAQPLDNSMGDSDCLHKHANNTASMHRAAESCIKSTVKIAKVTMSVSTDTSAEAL

Q: With Cc1c(C(=O)c2cccc3ccccc23)c2cccc3c2n1CC(CN1CCOCC1)O3 (centres unmarked) [Ex. 2I, 2-(4-morpholinylmethyl)-5-methyl-6-(1-naphthylcarbonyl)2,3-dihydropyrrolo[1,2,3-de]-1,4-benzoxazine] as the compound, how does the IC50 ([1]; CP IC50, CP55940 binding) read?
A: ~0.01 µM

Q: Which IC50 (mouse vas deferens; methanesulfonate) does the source give for Cc1c(C(=O)c2cccc3ccccc23)c2cccc3c2n1C(CN1CCOCC1)CO3 (single isomer, unassigned; (+)) [Ex. 2B (d), (+)-3-(4-morpholinylmethyl)-5-methyl-6-(1-naphthylcarbonyl)-2,3-dihydropyrrolo[1,2,3-de]-1,4-benzoxazine methanesulfonate] here?
A: 0.043 ± 0.0001 µM

Q: Which IC50 (mouse vas deferens) does the source give for Cc1c(Sc2ccccc2)c2cccc3c2n1C(CN1CCOCC1)CO3 (single isomer, unassigned; (+)) [Prep. 4B (d)] here?
A: 0.07 µM

Q: With Cc1c(Sc2ccccc2)c2cccc3c2n1C(CN1CCOCC1)CO3 (single isomer, unassigned; (-)) [Prep. 4B (1)] as the compound, how does the IC50 (mouse vas deferens) read?
A: 0.69 µM

Q: Which IC50 (mouse vas deferens; Mus musculus) does the source give for Cc1c(Sc2ccccc2)c2cccc3c2n1C(CN1CCOCC1)CO3 (centres unmarked) [Prep. 4A (d,1)] here?
A: > 10 µM

Q: For COc1ccc(C(=O)c2c(C)n3c4c(cccc24)OCC3CN2CCOCC2)cc1 (single isomer, unassigned; (-)) [Ex. 2H (1)], which inhibition at 10 µM (mouse vas deferens; Mus musculus) is on record?
A: 44%

Q: For CCCCCc1cc(O)c2c(c1)OC(C)(C)[C@@H]1CCC(C)=C[C@@H]21 [delta-9 tetrahydrocannabinol], which “effect on intraocular pressure” value [2] is on record?
A: reduces intraocular pressure

Q: Which IC50 (mouse vas deferens; methanesulfonate) does the source give for Cc1c(C(=O)c2cccc3c(Br)cc(Br)cc23)c2cccc3c2n1C(CN1CCOCC1)CO3 (single isomer, unassigned; (-)) [Ex. 1E, (-)-3-(4-morpholinylmethyl)-5-methyl-6-(5,7-dibromonaphthylcarbonyl)-2,3-dihydropyrrolo[1,2,3-de]-1,4-benzoxazine methanesulfonate] here?
A: 2.62 ± 1.7 µM

Q: With CCc1c(C(=O)c2ccc(OC)cc2)c2cccc3c2n1C(CN1CCOCC1)CO3 (centres unmarked) [Ex. 2A] as the compound, how does the inhibition at 10 µM (mouse vas deferens; Mus musculus) read?
A: 27%

Q: With COc1ccc(C(=O)c2c(C)n3c4c(cccc24)OCC3CN2CCOCC2)cc1 (single isomer, unassigned; (+)) [Ex. 2H (d)] as the compound, how does the IC50 ([1]; CP55940 binding, read-out: CP IC50) read?
A: 0.199 µM

Q: With Cc1c(C(=O)c2cccc3ccccc23)c2cccc3c2n1C(CN1CCOCC1)CO3 (single isomer, unassigned; (-)) [Ex. 2B (1), (-)-3-(4-morpholinylmethyl)-5-methyl-6-(1-naphthylcarbonyl)-2,3-dihydropyrrolo[1,2,3-de]-1,4-benzoxazine methanesulfonate] as the compound, how does the inhibition at 10 µM (mouse vas deferens; Mus musculus) read?
A: 37%

— patent publication US5112820A, “Anti-glaucoma compositions containing 2- and 3-aminomethyl-6-arylcarbonyl- or 6-phenylthio-2,3-dihydropyrrolo-(1,2,3-de)-1,4-benzoxazines and method of use thereof” (Sterling Drug Inc., priority 1990, dated 1992)
